Earlier results in patent publication US20220387435A1, “USE OF MULTI-TARGET PROTEIN KINASE INHIBITOR” (CSPC Zhongqi Pharmaceutical Technology (Shijiazhuang) Co., …, priority 2019, published 2022).
“Also recorded” adds a separate entry of the source.

Tests used:
AML patients [1] = conditions: cited from earlier work; for Main toxicity: similar products, prior art
AML patients [2] = conditions: cited from earlier work; for CR rates in monotherapy for R/R AML: Sorafenib 400 mg BID, Midostaurin 50 mg BID, Quizartinib 30-60 mg QD, Gilteritinib 120 mg QD
FLT3-TKD mutation = conditions: similar products, prior art; cited from earlier work
[3] = 120 mg daily, N = 246, ADMIRAL trial
[4] = phase 3 clinical trial of Gilteritinib
[5] = phase 3 clinical trial of Quizatinib
[6] = phase II trial of oral Quizartinib, relapsed/refractory AML
[7] = phase II trial of oral Quizartinib

**Q.** For `CCc1nc(C(N)=O)c(Nc2ccc(N3CCC(N4CCN(C)CC4)CC3)c(OC)c2)nc1NC1CCOCC1` [Gilteritinib], which “Most common ADRs of grade ≥ 3: Anemia” value (AML patients [1]; [3]) is on record?
**A.** 100 (40.7%)

**Q.** And the “Most common ADRs of grade ≥ 3: Febrile neutropenia” value (AML patients [1]; [3])?
**A.** 113 (45.9%)

**Q.** And the “Most common ADRs of grade ≥ 3: Thrombocytopenia” value (AML patients [1]; [3])?
**A.** 56 (22.8%)

**Q.** What about the “Cardiotoxicity ADR: Cardiac failure” value (AML patients [1]; 120 mg daily, N = 292) of the same compound?
**A.** 4%

**Q.** And the “Cardiotoxicity ADR: Pericardial effusion” value (AML patients [1]; 120 mg daily, N = 292)?
**A.** 3%

**Q.** What about the “Cardiotoxicity ADR: Pericarditis” value (AML patients [1]; 120 mg daily, N = 292) of the same compound?
**A.** 2%

**Q.** What about the “Cardiotoxicity ADR: QT interval prolongation” value (AML patients [1]; 120 mg daily, N = 292) of the same compound?
**A.** 8.4%

**Q.** And the “incidence of ALT elevation of all grades” value (AML patients [1]; [4])?
**A.** 26.3%

**Q.** What about the “incidence of ALT elevation of grade ≥3” value (AML patients [1]; [4]) of the same compound?
**A.** 12.9%

**Q.** What about the “incidence of AST elevation of all grades” value (AML patients [1]; [4]) of the same compound?
**A.** 80.6%

**Q.** And the “incidence of QT interval prolongation of all grades” value (AML patients [1]; [4])?
**A.** 8.8%

**Q.** And the “incidence of QT interval prolongation of grade ≥3” value (AML patients [1]; [4])?
**A.** 2.5%

**Q.** And the Main toxicity (AML patients [1])?
**A.** Transaminase; also recorded: diarrhea

**Q.** For `CO[C@@H]1[C@H](N(C)C(=O)c2ccccc2)C[C@H]2O[C@]1(C)n1c3ccccc3c3c4c(c5c6ccccc6n2c5c31)C(=O)NC4` [Midostaurin], which Main toxicity (AML patients [1]) is on record?
**A.** Gastrointestinal; also recorded: myelosuppression

**Q.** With `CC(C)(C)c1cc(NC(=O)Nc2ccc(-c3cn4c(n3)sc3cc(OCCN5CCOCC5)ccc34)cc2)no1` [Quizartinib] as the compound, how does the CR (AML patients [2]; Quizatinib Japan phase 2 53 mg 26 cases, prior lines not limited) read?
**A.** 0 cases

**Q.** What about the “CR rates in monotherapy for R/R AML” value (AML patients [2]) of the same compound?
**A.** 24-47%

**Q.** What about the “serious hematological adverse reaction: anemia” value (AML patients [1]; [5]) of the same compound?
**A.** 25.9%

**Q.** And the “serious hematological adverse reaction: cytopenia” value (AML patients [1]; [5])?
**A.** 2.5%

**Q.** And the “serious hematological adverse reaction: febrile neutropenia” value (AML patients [1]; [5])?
**A.** 15.8%

**Q.** And the “serious hematological adverse reaction: leukopenia” value (AML patients [1]; [5])?
**A.** 18.0%

**Q.** And the “serious hematological adverse reaction: lymphopenia” value (AML patients [1]; [5])?
**A.** 4.0%

**Q.** And the “serious hematological adverse reaction: neutropenia” value (AML patients [1]; [5])?
**A.** 25.9%

**Q.** And the “serious hematological adverse reaction: thrombocytopenia” value (AML patients [1]; [5])?
**A.** 34.2%

**Q.** And the “adverse reaction: anemia” value (AML patients [1]; [6])?
**A.** 29%

**Q.** What about the “adverse reaction: diarrhea” value (AML patients [1]; [6]) of the same compound?
**A.** 20%

**Q.** And the “adverse reaction: fatigue” value (AML patients [1]; [6])?
**A.** 20%

**Q.** And the “adverse reaction: febrile neutropenia” value (AML patients [1]; [6])?
**A.** 25%

**Q.** What about the “adverse reaction: nausea” value (AML patients [1]; [6]) of the same compound?
**A.** 38%

**Q.** What about the “adverse reaction: vomiting” value (AML patients [1]; [6]) of the same compound?
**A.** 26%

**Q.** And the dose-limiting toxicity response (AML patients [1]; [7])?
**A.** QT prolongation of Grade 3

**Q.** What about the “patients discontinuing the treatment due to adverse events” value (AML patients [1]; [7]) of the same compound?
**A.** 10%

**Q.** What about the Main toxicity (AML patients [1]) of the same compound?
**A.** QTinterval; also recorded: myelosuppression

**Q.** For `CNC(=O)c1cc(Oc2ccc(NC(=O)Nc3ccc(Cl)c(C(F)(F)F)c3)cc2)ccn1` [Sorafenib], which “CR rates in monotherapy for R/R AML” value (AML patients [2]) is on record?
**A.** <10%

**Q.** And the Main toxicity (AML patients [1])?
**A.** Rash, bleeding,; also recorded: myelosuppression

**Q.** And the FLT3-TKD mutation activity (FLT3-TKD mutation)?
**A.** No
